Values quoted from earlier work as cited in US20120178757A1, “Method For The Prevention Of Cancer Metastasis” (NOTTINGHAM UNIVERSITY HOSPITALS NHS TRUST, priority 2010, published 2012).
“Also recorded” adds a separate entry of the source.

Columns and labels:
[1] = tested on: breast cancer cells; details: in vitro breast cancer cells
[2] = tested on: prostate cancer; details: coincidental treatment for hypertension or benign prostate hyperplasia
[3] = tested on: human pancreatic cell lines
[4] = tested on: carcinoma cell lines of colon, prostate, ovary and breast; details: adrenoceptor-mediated, norepinephrine-induced migration of cancer cells

Row | Compound | apoptosis [1] | proliferation [1] | incidence of prostate cancer [2] | proliferation [3] | cell migration [4]
1 | COc1cc2nc(N3CCN(C(=O)C4COc5ccccc5O4)CC3)nc(N)c2cc1OC (stereo not drawn) [doxazosin, Doxazosin] | induce apoptosis | inhibit proliferation | significantly lowered the incidence of prostate cancer | – | –
2 | CC(C)NCC(O)COc1cccc2ccccc12 (stereo not drawn) [propranolol, Propranolol] | – | – | – | can reduce proliferation | can be inhibited; also recorded: is inhibited
3 | COc1cc2nc(N3CCN(C(=O)C4CCCO4)CC3)nc(N)c2cc1OC (stereo not drawn) [terazosin, Terazosin] | – | – | significantly lowered the incidence of prostate cancer | – | –
